According to publication PMC11203978, “Discovery of Di(het)arylmethane and Dibenzoxanthene Derivatives as Potential Anticancer Agents” (International Journal of Molecular Sciences, 2024):
Structures can show the parent of a compound that is named as a salt. Where two headings read alike, the source gives them in different places.

How the values were obtained:
[1] = tested on: M-HeLa; assay: MTT cytotoxicity, M-HeLa; assay type: cell-based, human; conditions: MTT, 48 h incubation, read-out: IC50 (µM) Cancer Cell Lines M-HeLa
Text: (§1) Cells and Materials. For the experiments, we used tumor cell cultures M-HeLa clone 11 (epithelioid carcinoma of the cervix, subline HeLa, clone M-HeLa), HuTu 80, human duodenal adenocarcinoma, Hep-2, human epithelial cells, SH-SY5Y, human neuroblast-like cells, A549, human lung adenocarcinoma, PA-1, human ovarian teratocarcinoma and MCF-7, a human mammary ductal adenocarcinoma from the collection of the Institute of Cytology, Russian Academy of Sciences (St. Petersburg, Russia); human liver cells (Chang liver) were from the collection and the Research Institute of Virology of the Russian Academy of Medical Sciences (Moscow, Russia).
(§2) MTT Assay. The cytotoxic effect on cells was determined using the colorimetric method of cell proliferation—the MTT test. NADP-H-dependent cellular oxidoreductase enzymes can, under certain conditions, reflect the number of viable cells. These enzymes reduce the tetrazolium dye (MTT) 3-(4,5-dimethylthiazol-2-yl)-2,5-diphenyl-tetrazolium bromide to insoluble blue-violet formazan, which crystallizes inside the cell. The amount of formed formazan is proportional to the number of cells with active metabolism. Cells were seeded on a 96-well Nunc plate at a concentration of 5 × 10^3 cells per well in a volume of 100 μL of medium and cultured in a CO2 incubator at 37 °C until a monolayer was formed. After the nutrient medium was removed, 100 µL of the test drug solutions at the given dilutions were added to the wells, which were prepared directly in the nutrient medium with the addition of 5% DMSO to improve solubility. After 48 h of incubation of the cells with the tested compounds, the nutrient medium was removed from the plates and 100 µL of the nutrient medium without serum with MTT at a concentration of 0.5 mg/mL was added and incubated for 4 h at 37 °C. Formazan crystals were added 100 µL of DMSO to each well. Optical density was recorded at 540 nm on an Invitrologic microplate reader (Novosibirsk, Russia). The experiments for all compounds were repeated three times.
(§3) Statistical analysis. The IC50 values were calculated using the MLA–Quest Graph™ IC50 Calculator (AAT Bioquest, Inc., Sunnyvale, CA, USA), 14 February 2022. Statistical analysis was performed with the Mann–Whitney test (p < 0.05). Tabular and graphical data contain averages and standard error.

[2] = tested on: HuTu 80; assay: MTT cytotoxicity, HuTu 80; assay type: cell-based, human; conditions: for IC50: MTT, 48 h incubation, read-out: IC50 (µM) Cancer Cell Lines HuTu 80; for Selectivity index (SI) = IC50(normal)/IC50(tumoral): Chang liver vs HuTu 80
Text: as §1, §2, §3

[3] = tested on: Chang Liver; assay: MTT cytotoxicity, normal Chang liver cells; assay type: cell-based, human; conditions: 48 h incubation, read-out: IC50 (µM) Normal Cell Line Chang Liver
Text: as §1, §2, §3

SMILES	IC50 ([1]; Homo sapiens, M-HeLa) [µM]	IC50 ([2]; Homo sapiens, HuTu80, 48 h) [µM]	IC50 ([3]; Homo sapiens, Chang liver) [µM]	melting point [°C]	Selectivity index (SI) = IC50(normal)/IC50(tumoral) [2]	IC50 ([2]; Homo sapiens, HuTu80) [µM]	IC50 [1] [µM]	IC50 [2] [µM]	IC50 [3] [µM]
O=C(C[n+]1ccccc1)NCCC1c2c(ccc3ccccc23)Oc2ccc3ccccc3c21.[Cl-] [Compound 8]	85.2 ± 7.4	58.4 ± 4.6	100 ± 9.2	156	–	–	–	–	–
O=C(NCC1c2c(ccc3ccc(O)cc23)Oc2ccc3ccc(O)cc3c21)c1nc2ccccc2[nH]1 [Compound 11b]	94.3 ± 7.9	11.5 ± 0.9	53.1 ± 4.3	224 to 225	–	–	–	–	–
O=C(CCl)NCC1c2c(ccc3ccc(O)cc23)Oc2ccc3ccc(O)cc3c21 [Compound 3b]	96.4 ± 8.4	53.9 ± 4.3	78.2 ± 6.8	> 250	–	–	–	–	–
O=C(NCC(c1cc2c(cc1O)OCO2)c1cc2c(cc1O)OCO2)c1nc2ccccc2[nH]1 [Compound 12a]	–	–	–	216 to 217	–	–	–	–	–
O=C(NCC1c2c(ccc3ccccc23)Oc2ccc3ccccc3c21)c1nc2ccccc2[nH]1 [Compound 11a]	> 100	> 100	> 100	216	–	–	–	–	–
O=C(C[n+]1ccccc1)NCCC(c1cc2c(cc1O)OCO2)c1cc2c(cc1O)OCO2 [Compound 9b]	97.8 ± 8.2	> 100	95.4 ± 8.7	159	–	–	–	–	–
COC(CNC(=O)CCl)OC [Compound 2a]	> 100	> 100	> 100	–	–	–	–	–	–
C[P+](CC(=O)NCCCC1c2c(ccc3ccccc23)Oc2ccc3ccccc3c21)(c1ccccc1)c1ccccc1 [Compound 6d]	53.2 ± 4.6	18.5 ± 1.5	56.2 ± 4.7	199 to 200	3	–	–	–	–
O=C(C[P+](c1ccccc1)(c1ccccc1)c1ccccc1)NCCCC1c2c(ccc3ccccc23)Oc2ccc3ccccc3c21 [Compound 6c]	26.6 ± 1.9	7.3 ± 0.6	33.4 ± 2.8	204 to 205	4.6	–	–	–	–
O=C(CCl)NCCC1c2c(ccc3ccc(O)cc23)Oc2ccc3ccc(O)cc3c21 [Compound 3d]	38.4 ± 2.7	18.1 ± 1.4	54.8 ± 4.4	137 to 139	3	–	–	–	–
O=C(CCl)NCCCC1c2c(ccc3ccc(O)cc23)Oc2ccc3ccc(O)cc3c21 [Compound 3f]	–	–	–	180	–	–	–	–	–
O=C(CCl)NCCC(c1c(O)c2ccccc2oc1=O)c1c(O)c2ccccc2oc1=O [Compound 5b]	65.3 ± 5.4	–	68.1 ± 5.4	134	–	52.1 ± 4.2	–	–	–
O=C(C[n+]1ccccc1)NCC(c1cc2c(cc1O)OCO2)c1cc2c(cc1O)OCO2 [Compound 9a]	> 100	> 100	> 100	178 to 180	–	–	–	–	–
COc1cccc2c1C(=O)c1c(O)c3c(c(O)c1C2=O)C[C@@](O)(C(=O)CO)C[C@@H]3O[C@H]1C[C@H](N)[C@H](O)[C@H](C)O1 [Doxorubicin, reference compound]	3 ± 0.2	3 ± 0.2	3 ± 0.1	–	1	–	–	–	–
O=C(CCl)NCCCC1c2c(ccc3ccccc23)Oc2ccc3ccccc3c21 [Compound 3e]	56.6 ± 4.4	> 100	73.3 ± 6.4	164 to 165	–	–	–	–	–
O=C(C[P+](c1ccccc1)(c1ccccc1)c1ccccc1)NCCC(c1cc2c(cc1O)OCO2)c1cc2c(cc1O)OCO2 [Compound 7b]	65.8 ± 5.8	55.4 ± 4.5	> 100	> 250	–	–	–	–	–
C[P+](CC(=O)NCCC1c2c(ccc3ccccc23)Oc2ccc3ccccc3c21)(c1ccccc1)c1ccccc1 [Compound 6b]	28.4 ± 1.8	64.3 ± 5.2	> 100	–	–	–	–	–	–
O=C(CCl)NCCCC(c1cc2c(cc1O)OCO2)c1cc2c(cc1O)OCO2 [Compound 4c]	> 100	> 100	> 100	189 to 191	–	–	–	–	–
CNC(=O)c1cc(Oc2ccc(NC(=O)Nc3ccc(Cl)c(C(F)(F)F)c3)cc2)ccn1 [Sorafenib, reference compound]	35.6 ± 2.8	5 ± 0.4	35 ± 2.7	–	7	–	–	–	–
O=C(C[P+](c1ccccc1)(c1ccccc1)c1ccccc1)NCC(c1cc2c(cc1O)OCO2)c1cc2c(cc1O)OCO2 [Compound 7a]	73.5 ± 6.2	59.7 ± 4.6	> 100	178 to 181	–	–	–	–	–
O=C(CCl)NCC1c2c(ccc3ccccc23)Oc2ccc3ccccc3c21 [Compound 3a]	> 100	> 100	> 100	200 to 203	–	–	–	–	–
O=C(NCC(c1c(O)c2ccccc2oc1=O)c1c(O)c2ccccc2oc1=O)c1nc2ccccc2[nH]1	–	–	–	263 to 265	–	–	–	–	–
O=C(CCl)NCC(c1c(O)c2ccccc2oc1=O)c1c(O)c2ccccc2oc1=O	–	–	–	187 to 188	–	–	–	–	–
C[P+](CC(=O)NCCC1c2c(ccc3ccccc23)Oc2ccc3ccccc3c21)(c1ccccc1)c1ccccc1 (as salt: salt) [Compound 6b]	–	–	–	161 to 162	–	–	–	–	–
COC(CNC(=O)c1nc2ccccc2[nH]1)OC [Compound 10a]	–	–	–	–	–	–	> 100	> 100	> 100
O=C(CCl)NCCC1c2c(ccc3ccccc23)Oc2ccc3ccccc3c21 [Compound 3c]	49.6 ± 3.9	29.3 ± 2.1	> 100	147 to 149	–	–	–	–	–
CCOC(CCNC(=O)CCl)OCC [Compound 2b]	> 100	> 100	> 100	–	–	–	–	–	–
Cc1cc(O)c(C(CCNC(=O)c2nc3ccccc3[nH]2)c2c(O)cc(C)oc2=O)c(=O)o1 [Compound 12c]	–	–	–	189 to 191	–	–	–	–	–
O=C(CCl)NCC(c1cc2c(cc1O)OCO2)c1cc2c(cc1O)OCO2 [Compound 4a]	> 100	> 100	> 100	180 to 182	–	–	–	–	–
O=C(CCl)NCCC(c1cc2c(cc1O)OCO2)c1cc2c(cc1O)OCO2 [Compound 4b]	84.6 ± 7.5	26.2 ± 1.7	> 100	166 to 168	–	–	–	–	–
